Where “and” joins values, the source holds several entries; their conditions need not be identical. Equal values may be shown once.
How the values were obtained:
Trypsin = target: T1, Trypsin (Homo sapiens, UniProt P07477); assay: Inhibitor selectivity assay, trypsin (fluorometric); type: biochemical
T1 construct: purchased Sigma
Procedure: (§1) To test for selectivity, two human serine proteases, Trypsin and Chymotrypsin (Sigma), were tested with the top two hit compounds from HTS using a fluorometric assay. The fluorogenic substrates used in this study were N-benzoyl-L-Arg-7-amido-4-methylcoumarin (Sigma) and N-succinyl-Ala-Ala-Phe-7-amido-4- methylcoumarin (Sigma) for trypsin and chymotrypsin, respectively. All assays were performed in 384-well black plates (Corning) in a total volume of 24 µL of PBS (pH 7.4) buffer containing 0.01% Triton, 0.1 mg/mL BSA, and 2 mM GSH in triplicate. A series of compound concentrations (0 to 200 µM final concentration at 2-fold serial dilution) in 100% DMSO was prepared in a 384-well plate. 20 µL of trypsin (0.01 mg/mL) and chymotrypsin (0.0001 mg/mL) solutions were distributed into wells, and 0.5 µL of varying concentration of compounds were added and incubated for 10 minutes. The enzyme reaction was initiated by adding 5 µL of the substrate (50 µM final concentration), and fluorescence intensity was continuously monitored at excitation/emission wavelengths of 350 nm/460 nm for 10 minutes.

Chymotrypsin = target: T2, Chymotrypsin (Homo sapiens, UniProt P17538); assay: Inhibitor selectivity assay, chymotrypsin (fluorometric); type: biochemical
T2 construct: purchased Sigma
Procedure: as §1

[1] = target: T3, HCV replicon cell lysate sg 1b (NS3) (Hepatitis C virus genotype 1b, UniProt Q9WMX2); assay: Whole cell lysate inhibition assay, HCV subgenomic replicon 1b; type: biochemical
T3 construct: host or cells: Huh7 Clone B cells stably replicating an HCV 1b subgenomic replicon; whole cell lysate
Procedure: Huh7-1 cells (also known as Huh7/scr cells) were obtained from F.V. Chisari (The Scripps Research Institute, La Jolla, CA). Clone B HCV sub-genotype 1b Huh7 cells were obtained from the NIH AIDS Research and Reference Reagent Program and have been previously described. Huh7 cells stably replicating the sub-genotype 2a HCV JFH-1 replicon were generated as previously described. All cells were cultured in complete Dulbecco’s modified Eagle’s medium (DMEM) supplemented with 10% fetal bovine serum, 100 units/mL penicillin, […] streptomycin, and 2 mM L-glutamine. HCV replicon cells were maintained in 500 µg/mL Geneticin (Invitrogen). For NS3 inhibition analysis, lysates from parental Huh7 cells and HCV replicon cells were harvested on ice in pre-chilled FRET cell lysis buffer (50 mM Tris-HCl, pH 7.5; 150 mM NaCl, 2 mM EDTA, 1.25% Triton X-100). Lysates were brought to room temperature and mixed 1∶1 with 2× FRET assay buffer (100 mM Tris-HCl, pH 7.5, 300 mM NaCl, 4 mM EDTA, 2.5% Triton X-100, 10 mM GSH, and 4 µM substrate). Fluorescence intensity was continuously monitored for 1 hour, and IC50 values were determined in the same way as biochemical assays.

[2] = target: T4, NS3/4A protease genotype 1a (Hepatitis C virus genotype 1a, UniProt P27958); assay: Inhibition assay with NS3/4A from genotype 1a; type: biochemical; settings: IC50 NS3/4A genotype 1a
T4 construct: against the NS3/4A protease domains from three additional HCV genotypes (1a, 2a, and 4d); purchased Anaspec
Procedure: (§2) The inhibitory activity of the final hit compounds from HTS were tested against three other HCV genotypes (1a, 2a, and 4d), along with a control (genotype 1b) and five NS3 drug-resistant mutants. Eight full-length NS3 mutants (V36M, R155K, A156T, A156S, 156V, V36A, T54A, and R155T) were generated by mutagenesis and purified, and the three HCV NS3/4A protease genotypes were purchased from Anaspec. Unfortunately the enzyme activities of the three mutants V36A, T54A, and R155T were much less than that of the rest of the mutants and were insufficient for testing, therefore mutant studies were done with the five active mutants. Continuous kinetic assays were performed against all hit compounds in the same way as the wild-type NS3/4A. As a control, full-length NS3/4A (genotype 1b) was tested under the same conditions for direct comparison for each plate.

[3] = target: NS3/4A protease genotype 4d (Hepatitis C virus subtype 4d, UniProt Q1ZZ56); assay: Inhibition assay with NS3/4A from genotype 4d; type: biochemical
Procedure: as §2

full-length NS3/4A [4] = target: T5, full-length NS3/4A (Hepatitis C virus genotype 1b, UniProt Q9WMX2); assay: SPR binding assay (dissociation equilibrium constant KD); settings: double referenced with blank and unrelated reference protein
T5 construct: wild-type HCV NS3 (HCV polyprotein residues 1027–1657); His-tag (N); made in house
Procedure: The full-length NS3/4A enzyme was prepared in a storage buffer (50 mM HEPES, pH 7.6, 500 mM NaCl, 1 mM DTT, 0.2% Triton X-100, and 20% glycerol) and immobilized on a CM5 sensor chip using standard amine-coupling at 25°C with running buffer HBS-P (10 mM HEPES, 150 mM NaCl, 0.05% surfactant P-20, pH 7.4) using a Biacore T100 instrument. Flow channels 1 and 3 were activated by 1-ethyl-3-(3-dimethylaminopropyl) carbodiimide hydrocholoride (EDC)/N-hydroxy succinimide (NHS) mixture, and the activated surface was blocked by ethanolamine (pH 8.5) as controls. The NS3/4A enzyme was diluted in 10 mM sodium acetate (pH 5.0), and immobilized to flow channel 4 after sensor surface activation with EDC/NHS with a 7 min injection followed by ethanolamine blocking on unoccupied surface area. NS3/4A immobilization level was ∼8,500 response units (RU). An unrelated reference protein (92 kDa) was also immobilized to flow channel 2 as another control to be compared with NS3/4A (74.6 kDa). Fifteen initial hit compounds were prepared as 10 mM DMSO stock solutions. Compound solutions with a series of increasing concentrations (0–200 µM at 1.5-fold dilution) were applied to all four channels at a 10 µL/min flow rate at 25°C. Sensorgrams were analyzed using Biaevaluation software 2.0.3, and response unit difference (ΔRU) values at each concentration were measured during the equilibration phase. Data were either single referenced with a blank (enthanolamine) or double referenced with both blank and reference protein RU values. SigmaPlot 11.0 was used to fit the data to a single rectangular hyperbolic curve to determine KD values. The hyperbola function, y = ymax·x/(KD+x), was used to plot response units and corresponding concentration, where y is the response, ymax is the maximum response, and x is the compound concentration.

full-length NS3/4A [5] = target: T5, full-length NS3/4A; assay: Type (mechanism) of enzyme inhibition, kinetic analysis; type: biochemical
Procedure: Full-length NS3/4A activity was monitored in the same way as the primary screening with varying concentration of both inhibitor compounds and substrate (0–8 µM). The concentration of compounds varied from 0 to 20 µM at 1.5-fold dilution factor.

T2 sequence (P17538 19-263): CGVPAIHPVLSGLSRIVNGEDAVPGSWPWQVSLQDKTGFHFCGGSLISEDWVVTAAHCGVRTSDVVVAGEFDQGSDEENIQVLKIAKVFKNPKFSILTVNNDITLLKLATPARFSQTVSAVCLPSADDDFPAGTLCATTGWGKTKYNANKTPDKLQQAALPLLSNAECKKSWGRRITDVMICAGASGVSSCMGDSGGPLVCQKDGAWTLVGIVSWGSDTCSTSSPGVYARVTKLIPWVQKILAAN

## Cc1cc(NC(=O)Cc2csc(NS(=O)(=O)c3ccccc3)n2)ccc1Br [Compound 12]
Trypsin; 100 µM compound, read-out: Trypsin % Inh at 100 µM
  inhibition at 100 µM: 28%
Trypsin; human trypsin
  IC50: > 100 µM
Chymotrypsin; 100 µM compound, read-out: Chymotrypsin % Inh at 100 µM
  inhibition at 100 µM: 19%
Chymotrypsin; human chymotrypsin
  IC50: > 100 µM
[1]; sg1b lysate compared to purified enzyme
  fold increase of IC50, whole cell lysate 1b vs biochemical assay: 10–20 fold
[1]; whole cell lysate, subgenomic replicon 1b
  IC50: < 120 µM and 29.3 µM
[2]
  IC50: < 20 µM
[3]
  IC50: < 20 µM
full-length NS3/4A [4]
  SPR binding to NS3/4A, double referenced: specific binding
full-length NS3/4A [5]; competitive model, with respect to substrate
  Ki: 3.5 µM
full-length NS3/4A [5]; with respect to the substrate, best fit model
  mechanism of inhibition: competitive inhibitors

From PMC3793977, “High-Throughput Screening (HTS) and Hit Validation to Identify Small Molecule Inhibitors with Activity against NS3/4A proteases from Multiple Hepatitis C Virus Genotypes” (PLoS ONE, 2013)
